ChEMBL document CHEMBL5236579, “Hydrophobicity Determines the Bacterial Killing Rate of α-Helical Antimicrobial Peptides and Influences the Bacterial Resistance Development” (J Med Chem, 2022)
≈ marks a conversion by molar mass, not a printed value. Calls of active or inactive are those of the source. The calls are words filed in the database; no cut-off is given here. Where a SMILES comes first, the peptide text is derived from it.

Assays:
Escherichia coli [1] = assay: Antimicrobial activity against Escherichia coli ATCC27622 by two fold broth microdilution method; format: functional
Lipopolysaccharide (LPS) [2] = assay: Binding affinity to Escherichia coli LPS assessed as LPS neutralizing activity measured after 5 mins by LPS neutralization assay
Staphylococcus aureus [3] = assay: Antimicrobial activity against clinical isolates Staphylococcus aureus by two fold broth microdilution method; format: functional
Vibrio parahaemolyticus [4] = assay: Induction of morphological changes in Vibrio parahaemolyticus ATCC17802 assessed as cellular inclusion leakage incubated at 5 times MIC and measured after 180 mins by scanning electron microscopy based analysis; format: functional, organism-based
Escherichia coli [5] = assay: In vivo antibacterial activity against Escherichia coli ATCC25722 infected in Balb/c mouse model assessed as reduction in bacterial CFU count on skin at 20 ug/ml incubated for 6 hrs post infection and measured after 2 hrs post compound treatment; format: functional, organism-based; details: dose 20.0 µg/ml, time 8.0 hrs
Lipopolysaccharide (LPS) [6] = assay: Binding affinity to Escherichia coli LPS assessed as LPS neutralizing activity measured after 60 mins by LPS neutralization assay
Cell membrane [7] = assay: Induction of outer membrane permeabilization in Escherichia coli ATCC25722 assessed as increase fluorescence intensity measured upto 15 mins by NPN uptake assay; format: cell membranes
Bacillus cereus = assay: Antimicrobial activity against clinical isolates Bacillus cereus by two fold broth microdilution method; format: functional
HaCaT = assay: Cytotoxicity against human HaCaT cells incubated for 48 hrs by MTT assay; format: toxicity, cell-based; details: dose < 250 µg/ml
Cell membrane [8] = assay: Induction of outer membrane permeabilization in Escherichia coli ATCC25722 assessed as increase fluorescence intensity at 0.5 to 2 times of MIC by NPN uptake assay; format: cell membranes; details: time <= 15.0 min, TDE = time-dependent effect
Peritoneal macrophage = assay: Cytotoxicity against mouse peritoneal macrophage cells incubated for 48 hrs by MTT assay; format: toxicity, cell-based; details: dose < 250 µg/ml
Vibrio parahaemolyticus [9] = assay: Antimicrobial activity against Vibrio parahaemolyticus ATCC17802 by two fold broth microdilution method; format: functional
Cell membrane [10] = assay: Induction of cytoplasmic membrane permeabilization in Vibrio parahaemolyticus […] assessed as calcein transmembrane diffusion into interior of gaint unilamellar vesicles by measuring time to equilibrium between inside and outside of vesicles at 2 ug/mL by confocal microscopy based calcein-AM leakage assay; format: cell membranes; details: dose 2.0 µg/ml
Cell membrane [11] = assay: Induction of outer membrane permeabilization in Vibrio parahaemolyticus ATCC17802 assessed as increase fluorescence intensity measured upto 15 mins by NPN uptake assay; format: cell membranes
Vibrio parahaemolyticus [12] = assay: Induction of bacterial resistance in Vibrio parahaemolyticus ATCC17802 assessed as fold increase in MIC treated over 30 serial passages measured after 24 hrs; format: functional
Vibrio parahaemolyticus [13] = assay: Induction of morphological changes in Vibrio parahaemolyticus ATCC17802 assessed as massive cell collapse incubated at 5 times MIC and measured after 180 mins by scanning electron microscopy based analysis; format: functional, organism-based
Cell membrane [14] = assay: Induction of inner membrane permeabilization in Vibrio parahaemolyticus ATCC17802 assessed as increase in PI fluorescence intensity at 5 times MIC by propidium iodide penetration assay; format: cell membranes; details: time <= 200.0 min
Cell membrane [15] = assay: Induction of outer membrane permeabilization in Vibrio parahaemolyticus ATCC17802 assessed as increase fluorescence intensity at 0.5 to 2 times of MIC by NPN uptake assay; format: cell membranes; details: time <= 15.0 min, TDE = time-dependent effect
Staphylococcus aureus [16] = assay: Antimicrobial activity against Staphylococcus aureus ATCC25923 by two fold broth microdilution method; format: functional; details: read-out: MIC
Escherichia coli [17] = assay: In vivo antibacterial activity against Escherichia coli ATCC25722 infected in Balb/c mouse model assessed as reduction in bacterial CFU count on skin at 20 ug/ml applied 4 hrs after infection and measured after 120 mins; format: functional, organism-based; details: dose 20.0 µg/ml
Vibrio parahaemolyticus [18] = assay: Bactericidal activity against Vibrio parahaemolyticus ATCC17802 assessed as killing rate at 0.5 X MIC by measuring time limit of detection by bacterial killing kinetic assay; format: functional
[19] = Hemolytic activity in human erythrocytes measured after 30 mins; format: toxicity, cell-based; details: erythrocyte, 0.5 h
Vibrio parahaemolyticus [20] = assay: Induction of morphological changes in Vibrio parahaemolyticus ATCC17802 assessed as surface fibrosis incubated at 5 times MIC and measured after 180 mins by scanning electron microscopy based analysis; format: functional, organism-based
Cell membrane [21] = assay: Induction of inner membrane permeabilization in Vibrio parahaemolyticus ATCC17802 at 5 times MIC measured upto 200 mins by propidium iodide penetration assay; format: cell membranes
Cell membrane [22] = assay: Binding affinity to Vibrio parahaemolyticus ATCC17802 cell membrane assessed as increase in fluorescence intensity measured after 120 mins by flow cytometry analysis (reference value: 1.88%); format: cell membranes
Cell membrane [23] = assay: Binding affinity to Vibrio parahaemolyticus ATCC17802 cell membrane assessed as increase in fluorescence intensity measured after 30 mins by flow cytometry analysis (reference value: 1.85%); format: cell membranes
Lipopolysaccharide (LPS) [24] = assay: Binding affinity to Escherichia coli LPS assessed as dissociation constant measured upto 600 sec by surface plasmon resonance imaging method
[25] = Effect on morphological changes in POPC/POPG (3:1) bilayer membrane assessed as formation of bulge aggregates by measuring the height of bulges at 2 ug/ml incubated for 40 mins under neutral pH and low ionic strength by atomic force microscopic analysis; format: cell membranes; details: Cell membrane, dose 2.0 µg/ml
Cell membrane [26] = assay: Induction of inner membrane permeabilization in Vibrio parahaemolyticus ATCC17802 assessed as calcein leakage at 5 times MIC by calcein-AM leakage assay; format: cell membranes; details: time <= 200.0 min, TDE = time-dependent effect
Staphylococcus aureus [27] = assay: Bactericidal activity against Staphylococcus aureus ATCC25923 assessed as killing rate at 0.5 X MIC measured upto 180 min by bacterial killing kinetic assay; format: functional, organism-based
Escherichia coli [28] = assay: Bactericidal activity against Escherichia coli ATCC25722 assessed as killing rate at 0.5 X MIC measured upto 180 min by bacterial killing kinetic assay; format: functional, organism-based

Compound	MIC (Escherichia coli [1]) [µg/mL]	MIC (Staphylococcus aureus [3]) [µg/mL]	MIC (Bacillus cereus) [µg/mL]	MIC (Vibrio parahaemolyticus [9]) [µg/mL]	fold change (FC) (Vibrio parahaemolyticus [12])	Activity (Cell membrane [14])	MIC (Staphylococcus aureus [16]) [µg/mL]	Time (Vibrio parahaemolyticus [18]) [min]	Activity (Cell membrane [21])	also measured
CC[C@H](C)[C@H](NC(=O)[C@H](CCCCN)NC(=O)[C@H](CCCNC(=N)N)NC(=O)[C@H](CC(C)C)NC(=O)[C@H](CC(C)C)NC(=O)[C@H](CCCCN)NC(=O)[C@H](CCCCN)NC(=O)[C@H](Cc1ccccc1)NC(=O)[C@H](CC(C)C)NC(=O)CNC(=O)[C@@H](N)CCCNC(=N)N)C(=O)N[C@@H](CCCCN)C(=O)N[C@@H](CCCCN)C(=O)NCC(=O)N[C@@H](Cc1ccccc1)C(=O)N[C@@H](CCCCN)C(=O)N[C@@H](CCCCN)C(=O)O (H-RGLFKKLLRKIKKGFKK-OH)	4.69 (≈ 2.25 µM)	18.8 (≈ 8.98 µM)	9.38 (≈ 4.49 µM)	4.69 (≈ 2.25 µM)	16	Active	2.34 (≈ 1.12 µM)	120	Active	Activity (Lipopolysaccharide (LPS) [2]): inactive; Activity (Vibrio parahaemolyticus [4]): Active; Activity (Escherichia coli [5]): Active; Activity (Lipopolysaccharide (LPS) [6]): Active; Activity (Cell membrane [7]): Dose-Dependent Effect; Activity (HaCaT): Dose-Dependent Effect; Activity (Cell membrane [8]): Tde; Activity (Peritoneal macrophage): Dose-Dependent Effect; TIME (Cell membrane [10]): 1 h; Activity (Cell membrane [11]): Dose-Dependent Effect; Activity (Vibrio parahaemolyticus [13]): Active; Activity (Cell membrane [15]): Tde; Activity (Escherichia coli [17]): inactive; Activity [19]: Toxic; Activity (Vibrio parahaemolyticus [20]): Active; Activity (Cell membrane [22]): 99.5%; Activity (Cell membrane [23]): 20.6%; Kd (Lipopolysaccharide (LPS) [24]): 23.5 µM; Activity [25]: 1 nm
CC[C@H](C)[C@H](NC(=O)[C@H](CC(C)C)NC(=O)[C@H](CCCNC(=N)N)NC(=O)[C@H](CC(C)C)NC(=O)[C@H](CC(C)C)NC(=O)[C@H](CCCCN)NC(=O)[C@H](CCCCN)NC(=O)[C@H](Cc1ccccc1)NC(=O)[C@H](CC(C)C)NC(=O)CNC(=O)[C@@H](N)CCCNC(=N)N)C(=O)N[C@@H](CCCCN)C(=O)N[C@@H](CCCCN)C(=O)NCC(=O)N[C@@H](Cc1ccccc1)C(=O)N[C@@H](CCCCN)C(=O)N[C@@H](CCCCN)C(=O)O (H-RGLFKKLLRLIKKGFKK-OH)	4.69 (≈ 2.26 µM)	18.8 (≈ 9.04 µM)	9.38 (≈ 4.52 µM)	4.69 (≈ 2.26 µM)	–	Active	2.34 (≈ 1.13 µM)	60	Active	Activity (Cell membrane [26]): Tde
CC[C@H](C)[C@H](NC(=O)[C@H](CCCCN)NC(=O)[C@H](CC(C)C)NC(=O)[C@H](C)NC(=O)CNC(=O)[C@H](CC(N)=O)NC(=O)[C@H](CC(C)C)NC(=O)[C@@H](NC(=O)[C@H](CCCCN)NC(=O)[C@H](CCCCN)NC(=O)[C@H](Cc1c[nH]c2ccccc12)NC(=O)[C@H](Cc1ccccc1)NC(=O)[C@H](CCCCN)NC(=O)[C@H](CCCNC(=N)N)NC(=O)[C@H](CCCNC(=N)N)NC(=O)[C@@H](N)[C@@H](C)O)C(C)C)C(=O)N[C@@H](C)C(=O)O (H-TRRKFWKKVLNGALKIA-OH)	9.38 (≈ 4.62 µM)	18.8 (≈ 9.24 µM)	9.38 (≈ 4.62 µM)	4.69 (≈ 2.31 µM)	–	–	4.69 (≈ 2.31 µM)	30	–	Activity (Staphylococcus aureus [27]): Active; Activity (Escherichia coli [28]): Active
CC1(C)S[C@@H]2[C@H](NC(=O)[C@H](N)c3ccccc3)C(=O)N2[C@H]1C(=O)O [AMPICILLIN]	2.34 (≈ 6.7 µM)	> 200	4.69 (≈ 13.4 µM)	0.59 (≈ 1.69 µM)	32	–	0.59 (≈ 1.69 µM)	–	–	–
